Assay results published in patent US20110165092A1, “COSMETIC AND/OR DERMATOLOGICAL COMPOSITION” (Universite de la Mediterranee, Aix-Marseille II, priority 2008, published 2011).

How the values were obtained:
progeria patient cells = test: Immunocytochemistry, nuclear morphology of progeria patient cells; assay type: cell-based, human; conditions: abnormal nuclei 48 hours after start, FIG. 10d
Text: The dermal fibroblasts of a control subject (GM00038) and of patients afflicted with progeria and carriers of the G608G mutation (AG11498 and AG01972) were obtained from the Coriell Cell Repository. The HeLa cells came from the American Type Culture Collection. The cells were cultivated in DMEM (Gibco) supplemented with 10% FBS (Gibco) and 1% antibiotic-antimycotic (Gibco). The fibroblasts came from 12-day old mice tails (Varela et al., 2005). The concentration and the length of the treatment with the statin and the aminobiphosphonate are indicated in the legend to the figures. […] The percentage of abnormal nuclei was measured 48 hours after the start of the treatment. […]
The dilution of primary antibodies was 1:100 for the polyclonal goat anti-prelamin A antibody Sc-6214, Santa Cruz Biotechnologies), 1:40 for the anti-lamin A/C antibody (4A7 supplied by G. Morris), 1:200 for the anti-calreticulin rabbit antibody (Stressgen) and 1:100 for the anti-lamin B1 antibody (Abcam). […] Digital images were recorded with a Leica DMR microscope equipped with a CoolSnap camera or with a Leica TCS SP5 confocal microscope. […] More than 100 nuclei were analysed in control fibroblasts for each of the treatments. The number of cell nuclei of patients afflicted with progeria which was analysed was 250 (passage 8), 198 (passage 13) and 150 (passage 20). […]

Zmpste24−/− cells = test: Nuclear morphology of Zmpste24−/− mice cells in culture; assay type: cell-based, mouse; conditions: pravastatin 1 μM and zoledronate 1 μM, alone or in combination, FIG. 12a
Text: (§1) The dermal fibroblasts of a control subject (GM00038) and of patients afflicted with progeria and carriers of the G608G mutation (AG11498 and AG01972) were obtained from the Coriell Cell Repository. The HeLa cells came from the American Type Culture Collection. The cells were cultivated in DMEM (Gibco) supplemented with 10% FBS (Gibco) and 1% antibiotic-antimycotic (Gibco). The fibroblasts came from 12-day old mice tails (Varela et al., 2005). The concentration and the length of the treatment with the statin and the aminobiphosphonate are indicated in the legend to the figures. During the combined treatment with statin+aminobiphosphonate in the presence of farnesol and/or geranylgeraniol, […] were added to the culture medium with increasing concentrations of farnesol and/or geranylgeraniol. The percentage of abnormal nuclei was measured 48 hours after the start of the treatment.
(§2) Quantification of the effect of pravastatin (1 μM) and zoledronate (1 μM) combined or uncombined on the nuclear morphology of Zmpste24^−/− mice (a) and control mice (b) cells in culture, in the presence of farnesol, geranylgeraniol or both molecules.

control fibroblasts = test: Nuclear morphology of control mice cells in culture; assay type: cell-based, mouse; conditions: FIG. 12b
Text: as §1, §2

healthy cells = test: Immunohistochemistry dose- and time-response on healthy control cells; assay type: cell-based, human; conditions: 100 μM pravastatin for 12 hours, 20 μM zoledronate for 6 hours, FIG. 3; for rate of prelamin A produced in treated healthy cells: in combination or singly
Protocol: Labtech style culture wells (Nunc, Ref. 177399) are seeded, at the rate of 5×10^4 cells per well.
The complete culture medium is supplemented with the treatment or treatments (statin, NBP, both), and the cells are cultivated for the ad hoc time.
The cells are fixed in a 4% paraformaldehyde solution (in PBS) for 10 minutes at ambient temperature.
The primary antibody is diluted to 1/100th in 50 μl of incubating solution and placed in contact with the cells for 1 hour at ambient temperature in a moisture chamber.
The primary antibodies used are of 2 types: • Anti-lamin A/C mouse (N-terminal side), clone 4A7, donation from G. Morris (Oswestry, UK) • Anti-prelamin A goat (15 aa C-terminal end), product SC6214, Santa Cruz Biotechnology, Inc. • 3 rinsings of 15 min each are carried out in 50 μl of 1× PBS.
The cells are immersed in a drop of VectaShield (Vector), covered with a cover glass and observed under a fluorescence microscope (Leica DMR, Leica Microsystems), equipped with a coolSNAP camera system (Princeton).
Dose-response and time-response curves made it possible to determine maximum effectiveness by measuring 2 parameters on healthy control cells, on the one hand, and then on HGPS patient cells.

Zmpste24−/− mice = test: Progeroid phenotype of Zmpste24−/− mice (Example 9); assay type: in vivo, mouse; conditions: daily treatment, FIG. 15
Protocol: Pravastatin (100 mg/kg/day) and zoledronate (100 mg/kg/day) diluted in PBS were administered to the mice every day.
The difference between the various groups of treated or untreated mice and cells was analysed using the t-test. The calculations were made with the Microsoft Excel program. The data was expressed as a mean±standard error of the mean (SEM).

Row | Structure (SMILES) | influence on the effect of the pravastatin+zoledronate treatment on nuclear morphology (progeria patient cells) | influence on the effect of the pravastatin+zoledronate treatment on nuclear morphology (Zmpste24−/− cells) | effect on nuclear morphology of control fibroblasts (control fibroblasts) | rate of deformed nuclei (a sign of toxicity in healthy cells) (healthy cells) | rate of prelamin A produced in treated healthy cells (healthy cells) [%] | lifespan of the Zmpste24−/− mice, each drug separately (Zmpste24−/− mice)
1 | CC(C)=CCCC(C)=CCCC(C)=CCO [farnesol] | abolishes the effect of the pravastatin+zoledronate treatment | abolish the effect of the pravastatin+zoledronate treatment on the nuclear morphology | Neither farnesol nor geranylgeraniol produces any effect on control fibroblasts | – | – | –
2 | CC(C)=CCC/C(C)=C/CC/C(C)=C/CC/C(C)=C/CO [geranylgeraniol] | also blocks the effect of the treatment | abolish the effect of the pravastatin+zoledronate treatment on the nuclear morphology | Neither farnesol nor geranylgeraniol produces any effect on control fibroblasts | – | – | –
3 | CC[C@H](C)C(=O)O[C@H]1C[C@H](O)C=C2C=C[C@H](C)[C@H](CC[C@@H](O)C[C@@H](O)CC(=O)O)[C@H]21 [pravastatin] | – | – | – | approximately 12% | 25 | –
4 | O=P(O)(O)C(O)(Cn1ccnc1)P(=O)(O)O [zoledronate, (1-hydroxy-2-imidazol-1-yl-1-phosphono-ethyl)phosphonic acid] | – | – | – | – | 15 | does not improve the lifespan
